Drawing on PubChem BioAssay (NCI), this text covers TGI and GI50 for 10 molecules.

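Tested at 5 concentrations; 48 h exposure; 96-well plates; endpoints linearly interpolated, else capped at highest concentration. Here, GI50 denotes the concentration required for 50% inhibition of growth. The concentration for full growth arrest is given as TGI.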

What all share (assay): inhibition of tumour cell growth, NCI panel, 48 h
The test system of assay [1] is RXF 393 renal.
The test system of assay [2] is OVCAR-8 ovarian.
Assay [3] concerns U251 CNS.
In assay [4] the test system is SK-MEL-5 melanoma.
Assay [5] deals with 786-0 renal.
Assay [6] concerns HCT-116 colon.
For assay [7], the system named is NCI-H23 lung.
For assay [8], the system named is HT29 colon.
In assay [9] the test system is SK-OV-3 ovarian.
Assay [10] deals with A549 NSCLC.

Turning to `COc1ccc(-c2cc(-c3ccco3)c(C#N)c(=O)n2C2OC(OC(=O)c3ccccc3)C(OC(=O)c3ccccc3)C2OC(=O)c2ccccc2)cc1` (stereo not drawn), the TGI was 63.7 µM in assay [1]; over 100 µM in [2]; over 100 µM in assay [3]; over 100 µM in [4]; over 100 µM in assay [5]; over 100 µM in assay [6]. Besides, the TGI in assay [7] and in [8] was over 100 µM throughout.

As for `COc1ccc(C2CC(c3cccc(Nc4ccnc5cc(Cl)ccc45)c3)=NN2c2ccccc2)cc1` (stereo not drawn), the GI50 in [1] is 8.91 µM; in assay [2], 2.85 µM; in assay [9], 9.62 µM; in assay [4], 1.46 µM; in assay [10] it was 2 µM; in assay [5] it was 3.95 µM. Also, the GI50 in assay [6] was 1.12 µM; in assay [7] it was 8.78 µM. The TGI in [1] was 49.7 µM; in assay [2], 38.8 µM; in assay [9], 76.5 µM; in [4], 4.76 µM; in [10], over 100 µM; in assay [5], over 100 µM. Moreover, the figures for the TGI in assay [6] and in assay [7] were 18.7 µM and 59.7 µM, respectively.

With `NC(N)=Nc1nc2cc(N)ccc2o1`, the TGI in assay [2], in assay [3], in [9], in [10], in assay [5] and in [6] was over 100 µM in each case. Moreover, the TGI in assay [7] and in assay [8] was over 100 µM each time.

For `COc1cc(OC)cc(-c2n[nH]nc2-c2ccc3c(c2)OCO3)c1`, the GI50 in assay [2] was 0.512 µM; in assay [3], 0.302 µM; in assay [9], 0.486 µM; in [4], 0.168 µM; in assay [10] it was 0.289 µM; in assay [5], 0.618 µM. Besides, the GI50 in assay [6] is 0.181 µM; in assay [7], 0.768 µM; in assay [8], 0.392 µM. Further, the TGI in [2] amounted to 31.3 µM; in assay [3], 11.2 µM; in assay [9], 93.2 µM; in assay [4], 11.9 µM; in [10], 50.9 µM; in assay [5] it was 63.5 µM. Moreover, the TGI was 15.6 µM in assay [6], over 100 µM in assay [7] and 12.5 µM in assay [8].

Take `CCSc1sc(-c2ccc(C)cc2)nc1[P+](c1ccccc1)(c1ccccc1)c1ccccc1`: the GI50 was 0.255 µM in assay [1]; 0.313 µM in assay [2]; 0.262 µM in assay [9]; 0.174 µM in [4]; 0.375 µM in [5]; 0.252 µM in assay [6]. Besides, the GI50 in assay [7] is 0.273 µM. Moreover, the TGI in assay [1] came out at 1.23 µM; in assay [2], 1.89 µM; in assay [9] it was 0.898 µM; in [4] it was 0.321 µM; in [5], 1.57 µM; in assay [6] it was 1.17 µM. In [7], this molecule returned a TGI of 0.881 µM.

For `COc1ccc(/C=N\N2C(=O)Cc3ccccc32)cc1`, the TGI in assay [2], in assay [3], in [9], in assay [4], in assay [10] and in [5] was over 100 µM in each case. Besides, the TGI in assay [6], in assay [7] and in assay [8] was over 100 µM each time.

Turning to `COc1ncn(C2C=C(CO)C(O)C2O)c(=O)n1` (stereo not drawn), the TGI in assay [1], in assay [2], in assay [3], in assay [9], in assay [4] and in [10] was over 100 µM each time. Moreover, the TGI in assay [5] and in assay [6] was over 100 µM throughout.

As for `COc1ccc(/C(C#N)=C/c2nc3c(N4CCOCC4)nc(Cl)nc3n2C)cc1OC`, the GI50 was under 0.01 µM in assay [2]; under 0.01 µM in [3]; under 0.01 µM in assay [9]; under 0.0108 µM in assay [4]; under 0.01 µM in assay [10]; under 0.01 µM in assay [5]. Besides, the GI50 in [6], in assay [7] and in assay [8] was under 0.01 µM in each case. The TGI stood at 3.97 µM in assay [2]; 1.51 µM in [3]; 5.52 µM in assay [9]; 0.0347 µM in assay [4]; 1.92 µM in assay [10]; 1.61 µM in assay [5]. The TGI in assay [6] turned out to be 1.47 µM; in assay [7], 2.74 µM; in assay [8], 1.4 µM.

Consider `O=C1c2cc(Br)ccc2-c2c1c1ccccc1c(=O)n2CCCCl`, for which the GI50 in assay [2] is 15.9 µM; in assay [3] it was 13.5 µM; in assay [9] it was 29.3 µM; in assay [4] it was 14.4 µM; in assay [10] it was 3.99 µM; in assay [5], 7.95 µM. Moreover, the GI50 in [6] was 3.05 µM; in [7] it was 13 µM. The TGI in assay [2] is 65.8 µM; in [3] it was 36.7 µM; in assay [9], over 100 µM; in assay [4] it was 77.7 µM; in assay [10], 36.3 µM; in assay [5] it was 26.2 µM. For the same molecule, the TGI in assay [6] turned out to be 17.1 µM; in assay [7], 40.9 µM.

Consider `COc1ccc(-c2ccc(/C=N/n3cnn(CN4CCN(C)CC4)c3=S)o2)c([N+](=O)[O-])c1`, for which the GI50 was 24.4 µM in assay [1]; 18.9 µM in assay [2]; 23.5 µM in assay [3]; 36.4 µM in [9]; 23.9 µM in assay [4]; 39.5 µM in assay [10]. The GI50 in assay [5] was 19.6 µM; in assay [7] it was 16.8 µM; in assay [8], 28.4 µM. For the same molecule, the TGI in [1] is over 100 µM; in assay [2], 55.5 µM; in assay [3] it was 65.7 µM; in assay [9], over 100 µM; in assay [4], 62.7 µM; in [10], over 100 µM. For the same molecule, the TGI was over 100 µM in assay [5], 54.6 µM in [7] and over 100 µM in assay [8].
